These results are taken from patent publication US11278543B2, “Inhibitors of the PP1/GADD34 complex for the treatment of a condition requiring an immunosuppressive activity” (INSERM, priority 2009, dated 2022).

One assay deals with P-eIF2-α. The experiment in a line: eIF2-α phosphorylation (P-eIF2-α) immunoblot in DCs. The assay is classed as cell-based, mouse. The conditions noted are these: for eIF2-α phosphorylation in presence of soluble poly I:C: DCs activated with soluble poly I:C 24 h, 75 μM salubrinal for the last 4 h. As to the method:
(§1) Bone marrow-derived DCs were obtained and cultured as described previously^50. NIH3T3 cells were cultured in RPMI 1640 (GIBCO) supplemented with 10% FCS (HyClone, PERBIO), 100 units/ml penicillin and 100 μg/ml streptomycin (GIBCO). Wild-type and PKR^−/− MEFs (from Caetano Reis e Sousa) were cultured in DMEM, 10% FCS, pen/strep. Wild-type and GCN2^−/− MEFs (from David Ron) were cultured in RPMI, 10% FCS, pen/strep, MEM non-essential amino acids (GIBCO), 55 μM beta-mercaptoethanol. For the tryptophan starvation experiments, MEFs and DCs were cultured for the indicated time in RPMI 1640 Tryptophan—medium (21875, GIBCO). All cells were cultured at 37° C. and 5% CO2.
(§2) MEFs, NIH3T3 and immature DCs were treated for the indicated time with 10 μg/ml poly I:C (InvivoGen), alone or in combination with lipofectamine 2000 (Invitrogen). 2 μg/ml tunicamycin (SIGMA) was added to DCs for 2 h; 2 μM MG132 (BIOMOL International) was added to DCs and NIH3T3 4 h before harvesting; 75 μM salubrinal (Calbiochem) or 100 nM tautomycin (Calbiochem) were added to DCs 4 h before harvesting; 500 μM sodium arsenite (SIGMA) was added for 30 min to DCs, NIH3T3 and MEFs; 50 μM LY294002 (Calbiochem) was added to DCs 1 h before harvesting. Immature DCs were treated for the indicated time with 100 ng/ml LPS (SIGMA).
(§3) Cells were lysed in 1% Triton X-100, 50 mM Hepes, 10 mM NaCl, 2.5 mM MgCl2, 2 mM EDTA, 10% glycerol, 1 mM PMSF, supplemented with Complete Mini Protease Inhibitor Cocktail Tablets (Roche). Protein quantification was performed using the BCA Protein Assay (Pierce). 25-50 μg of Triton X-100-soluble material were loaded on 2%-12% gradient SDS-PAGE before immunoblotting and chemiluminescence detection (SuperSignal West Pico Chemiluminescent Substrate, Pierce). Nuclear extraction was performed using the Nuclear Complex Co-IP kit (Active Motif). Rabbit polyclonal antibodies against ATF4 (CREB-2, C-20) and eIF2α (FL-315) were from Santa Cruz Biotechnology, as well as mouse monoclonal against GADD34 (C-19) and PKR (B-10). Rabbit polyclonal antibodies against P-eIF2α (Ser 51) and caspase-3 were from BioSource and Cell Signaling Technology respectively. Mouse monoclonal antibodies against β-actin and histone H1 were from SIGMA and Upstate respectively. Secondary antibodies were from Jackson ImmunoResearch Laboratories. Quantification of eIF2α phosphorylation was performed using the Multi Gauge software (Fujifilm).
On the technique in general: In western blotting, separated proteins are transferred to a membrane and probed.

Assay [1] has as its system DCs. The experiment in a line: Translation intensity measurement by puromycin labelling in DCs. The class given is cell-based, mouse. As to the method:
MEFs, NIH3T3 and immature DCs were treated for the indicated time with 10 μg/ml poly I:C (InvivoGen), alone or in combination with lipofectamine 2000 (Invitrogen). 2 μg/ml tunicamycin (SIGMA) was added to DCs for 2 h; 2 μM MG132 (BIOMOL International) was added to DCs and NIH3T3 4 h before harvesting; […]; 500 μM sodium arsenite (SIGMA) was added for 30 min to DCs, NIH3T3 and MEFs; 50 μM LY294002 (Calbiochem) was added to DCs 1 h before harvesting. Immature DCs were treated for the indicated time with 100 ng/ml LPS (SIGMA).
Puromycin labelling for measuring the intensity of translation was performed using 10 μg/ml puromycin (SIGMA, min 98% TLC, cell culture tested, P8833, diluted in PBS) was added in the culture medium and the cells were incubated for 10 min at 37° C. and 5% CO2. Where indicated, 25 μM cycloheximide (SIGMA) was added 5 min before puromycin. Cells were then harvested, centrifugated at 4° C. and washed with cold PBS prior to cell lysis and immunoblotting with the 12D10 antibody.
Cells were lysed in 1% Triton X-100, 50 mM Hepes, 10 mM NaCl, 2.5 mM MgCl2, 2 mM EDTA, 10% glycerol, 1 mM PMSF, supplemented with Complete Mini Protease Inhibitor Cocktail Tablets (Roche). Protein quantification was performed using the BCA Protein Assay (Pierce). […] Quantification of eIF2α phosphorylation was performed using the Multi Gauge software (Fujifilm).

For the next assay, the system named is IFN-β. The experiment in a line: IFN-β ELISA in culture supernatant of activated DCs. The assay is classed as cell-based, mouse. Conditions: poly I:C (or LPS) 8 h, salubrinal added 2 h before stimulation. As to the method: (§4) […] Immature DCs were treated for the indicated time with 100 ng/ml LPS (SIGMA).
IFN-β quantification in culture supernatant of DCs (5 fold-diluted) was performed using the Mouse Interferon Beta ELISA kit (PBL InterferonSource) according to manufacturer instructions.

The next assay relates to caspase-3. The assay can be described thus: Caspase-3 level and cleavage by immunoblot in DCs. The assay is classed as cell-based, mouse. As to the method:
as §4, §3

Assay [2] deals with DCs. The experiment in a line: Stress granule formation in DCs (mRNA in situ hybridization, confocal microscopy). The class given is cell-based, mouse.
Assay [3] concerns DCs. The assay can be described thus: mRNA quantification by real-time RT-PCR in poly I:C stimulated DCs. The assay is classed as cell-based, mouse. Conditions: qPCR. As to the method:
as §2
Total RNA was isolated from DCs using the RNeasy miniprep kit (Qiagen). cDNA was synthesized from RNA samples using the Superscript II reverse transcriptase (Invitrogen). Quantitative real-time PCR was carried out in complete SYBR Green PCR buffer (PE Biosystem) by using 200 nM of each specific primer. A total of 20 μl of PCR mix was added to 5 μl of cDNA template, and the amplification was tracked via SYBR Green incorporation by using a Stratagene sequence detection system. cDNA concentration in each sample were normalized by using HPRT. A nontemplate control was also routinely performed. Primers used for gene amplification (designed with the Primer3 software) have been generated.

A further assay deals with MEFs and NIH3T3. The experiment in a line: Translation monitoring in MEFs and NIH3T3 exposed to poly I:C. The assay is classed as cell-based, mouse. The conditions noted are these: lipofected poly I:C, within 4 to 8 hours. On the procedure: as §1
as §2, with “(SIGMA). […]” for “(SIGMA).”

In another assay the test system is ATF4. The experiment in a line: ATF4 protein immunoblot in nuclear extract of DCs. The class given is cell-based, mouse. The conditions noted are these: poly I:C, 8 h. On the procedure:
as §2
Cells were lysed in 1% Triton X-100, 50 mM Hepes, 10 mM NaCl, 2.5 mM MgCl2, 2 mM EDTA, 10% glycerol, 1 mM PMSF, supplemented with Complete Mini Protease Inhibitor Cocktail Tablets (Roche). Protein quantification was performed using the BCA Protein Assay (Pierce). 25-50 μg of Triton X-100-soluble material were loaded on 2%-12% gradient SDS-PAGE before immunoblotting and chemiluminescence detection (SuperSignal West Pico Chemiluminescent Substrate, Pierce). Nuclear extraction was performed using the Nuclear Complex Co-IP kit (Active Motif). […] Quantification of eIF2α phosphorylation was performed using the Multi Gauge software (Fujifilm).

The test system of the next assay is CHIKV. Conditions: murine IFN-β added 3 h before infection, 10 MOI, GFP expression at 24 h.

In the case of `CO[C@H]([C@H](O)CC(=O)[C@@H](C)[C@@H](O)CC[C@@H](C)[C@@H]1O[C@]2(CC[C@@H](C)[C@H](CC[C@H](C)C(C)=O)O2)CC[C@@H]1C)[C@H](OC(=O)C[C@@H](O)C1=C(C)C(=O)OC1=O)C(C)C` [tautomycin], the “eIF2-α phosphorylation (same experiments as with salubrinal)” value in the assay with P-eIF2-α (DCs, 100 nM tautomycin 4 h before harvesting, with or without poly I:C) is on record as “confirmed”.
In the case of `O=C(/C=C/c1ccccc1)NC(NC(=S)Nc1cccc2cccnc12)C(Cl)(Cl)Cl` (centres unmarked) [salubrinal], the “eIF2-α phosphorylation in presence of soluble poly I:C” value is “strongly accentuates eIF2-α phosphorylation” in the assay on P-eIF2-α and “considerably enhanced” in the assay on P-eIF2-α (listed as Salubrinal). The eIF2-α phosphorylation entry in the assay with P-eIF2-α (DCs, salubrinal alone, 75 μM, 4 h before harvesting) is on record as “induced eIF2-α phosphorylation”. Besides, in the assay on DCs [1] (poly I:C 4 or 8 h, salubrinal added 2 h before stimulation), the “Protein synthesis in poly I:C stimulated DCs” value was “strongly reduced”. The “IFN-β secretion by activated DCs” value with IFN-β is listed as “drastically reduced”. In the assay on caspase-3 (DCs stimulated 8 h, salubrinal added 2 h before), the “Caspase-3 levels and cleavage, salubrinal with poly I:C or LPS” value is recorded as “lighter effect than salubrinal alone”. Moreover, the “Total levels of caspase-3 and its cleaved active product” value in the assay on caspase-3 (DCs, salubrinal treatment alone) is reported as “massive increase”.
As for sodium arsenite, the “Proportion of DCs bearing stress granules” value in the assay with DCs [2] was around 100%.
As for “polyinosinic:polycytidylic acid [poly I:C]”, in the assay on P-eIF2-α (DCs, soluble poly I:C time course), the “P-eIF2-α levels during poly I:C stimulation” value is “gradually reduced”. The “Translation in DCs exposed to lipofected poly I:C” value in the assay with DCs [1] (after 8 hours of exposure) is recorded as “translation was not inhibited”. Also, in the assay on caspase-3 (DCs, 8 h, no salubrinal), the “Caspase-3 levels and cleavage, stimulus alone” value was “little effect”. Also, in the assay on DCs [3] (10 μg/ml poly I:C), the “ATF4 mRNA expression increase” value turned out to be 2 folds and the “CHOP mRNA expression increase” value is 8 folds. Moreover, in the assay on DCs [3] (poly I:C), the “CReP mRNA expression” value was “induced only very modestly” and the “PP1 mRNA expression” value is reported as “only modestly increased”. In addition, the “Proportion of DCs bearing stress granules upon activation” value in the assay on DCs [2] (DCs activated with poly I:C or LPS, 500 μM sodium arsenite for the last 30 min) was 15%. Besides, the “Translation in MEFs (wt) and NIH3T3” value in the assay on MEFs and NIH3T3 is given as “efficiently induced PKR-dependent translation arrest”. Moreover, the “ATF4 translation (protein level)” value in the assay with ATF4 is recorded as “strongly up-regulated”.

B1: IFN-β: murine interferon-β added to MEFs before CHIKV infection (protein, UniProt P01575 22-182, looked up)
Interferon beta: INYKQLQLQERTNIRKCQELLEQLNGKINLTYRADFKIPMEMTEKMQKSYTAFAIQEMLQNVFLVFRNNFSSTGWNETIVVRLLDELHQQTVFLKTVLEEKQEERLTWEMSSTALHLKSYYWRVQRYLKLMKYNSYAWMVVRAEIFRNFLIIRRLTRNFQN
For the molecule B1, the “CHIKV replication in WT and GADD34ΔC/ΔC MEFs” value in the assay on CHIKV is recorded as “abrogation of viral replication”.
